Results reported in patent publication US12622915B2, “Methods of treating PDE IV-mediated diseases or conditions” (Vanda Pharmaceuticals Inc., priority 2020, dated 2026).

How the values were obtained:
Phosphodiesterase PDE3A = molecular target: T1, Phosphodiesterase PDE3A (Homo sapiens, UniProt Q14432); test: Phosphodiesterase PDE3A enzyme assay; assay type: biochemical; conditions: N=2, Example 3
T1 construct: host or cells: insect Sf9 cells
Text: (§1) Reference standards are run as an integral part of each assay to ensure the validity of the results obtained. Reference Compounds: • Phosphodiesterase PDE10A2 Papaverine • Phosphodiesterase PDE11A4 Dipyridamole • Phosphodiesterase PDE1A MMPX • Phosphodiesterase PDE2A EHNA • Phosphodiesterase PDE3A Cilostamide • Phosphodiesterase PDE4A1A Rolipram • Phosphodiesterase PDE4B1 Rolipram • Phosphodiesterase PDE5A Zaprinast • Phosphodiesterase PDE6 Zaprinast • Phosphodiesterase PDE7A IBMX • Phosphodiesterase PDE7B IBMX • Phosphodiesterase PDE8A1 Dipyridamole • Phosphodiesterase PDE9A2 Zaprinast
Phosphodiesterase PDE4A1A; Phosphodiesterase PDE4B1; Phosphodiesterase PDE10A2; Phosphodiesterase PDE11A4; Phosphodiesterase PDE2A; Phosphodiesterase PDE3A; Phosphodiesterase PDE7A; Phosphodiesterase PDE7B; and Phosphodiesterase PDE8A1: • Source: Human recombinant insect Sf9 cells • Substrate: 0.10 μM FAM-cAMP • Vehicle: 1.00% DMSO • Significance Crit.: ≥50% of max stimulation or inhibition • Incubation Buffer: 10 mM Tris-HCl, pH 7.2, 10 mM MgCl2, 0.05% NaN3, 0.1% phosphate-free BSA • Quantitation Method: Quantitation of Fluorescein-AMP-IMAP • Pre-Incub. Time/Temp: 15 minutes @25° C. • Incubation Time/Temp: 30 minutes @25° C.
IC50 values are determined by a non-linear, least squares regression analysis using MathIQ™ (ID Business Solutions Ltd., UK). […]

Phosphodiesterase PDE1A = molecular target: T2, Phosphodiesterase PDE1A (Homo sapiens, UniProt P54750); test: Phosphodiesterase PDE1A enzyme assay; assay type: biochemical; conditions: N=2, Example 3
T2 construct: host or cells: insect Sf9 cells
Text: as §1
(§2) Phosphodiesterase PDE1A; Phosphodiesterase PDE5A; and Phosphodiesterase PDE9A2: • Source: Human recombinant insect Sf9 cells • Substrate: 0.10 μM […] • Vehicle: 1.00% DMSO • Significance Crit.: ≥50% of max stimulation or inhibition • Incubation Buffer: 10 mM Tris-HCl, pH 7.2, 10 mM MgCl2, 0.05% NaN3, 0.1% phosphate-free BSA • Quantitation Method: Quantitation of Fluorescein-GMP-IMAP • Pre-Incub. Time/Temp: 15 minutes @25° C. • Incubation Time/Temp: 30 minutes @25° C.
IC50 values are determined by a non-linear, least squares regression analysis using MathIQ™ (ID Business Solutions Ltd., UK). […] Where presented, the Hill coefficient (nH), defining the slope of the competitive binding curve, is calculated using MathIQ™. […]

[1] = Ocular instillation studies; assay type: in vivo; conditions: preclinical ocular instillation studies
Phosphodiesterase PDE4D2 = molecular target: T3, Phosphodiesterase PDE4D2 (Homo sapiens, UniProt Q08499); test: Phosphodiesterase PDE4D2 enzyme assay; assay type: biochemical
T3 construct: host or cells: insect Sf9 cells
Protocol: Roliprami is used as a reference standard.
PDE4 assays are performed using methods adapted from the literature. See Houslay MD (2005) The long and short of vascular smooth muscle phosphodiesterase-4 as a putative therapeutic target. Mol Pharmacol. 68(3):563-567; MacKenzie S J and Houslay M D (2000) Action of rolipram on specific PDE4 cAMP phosphodiesterase isoforms and on the phosphorylation of cAMP-response element-binding protein (CREB) and p38 mitogen-activated protein (MAP) kinase in U937 monocytic cells. Biochem J. 347(Pt 2): 571-578.
as §2, with “PDE4D2:” for “PDE1A; Phosphodiesterase PDE5A; and Phosphodiesterase PDE9A2:”, “Fluorescein-AMP-IMAP” for “Fluorescein-GMP-IMAP”, “15” for “30”
IC50 values are determined by a non-linear, least squares regression analysis using MathIQ™ (ID Business Solutions Ltd., UK). Where inhibition constants (Ki) are presented, the Ki values are calculated using the equation of Cheng and Prusoff (Cheng, Y., Prusoff, W.H., Biochem. Pharmacol. 22:3099-3108, 1973) using the observed IC50 of the tested compound, the concentration of radioligand employed in the assay, and the historical values for the KD of the ligand (obtained experimentally at Eurofins Panlabs, Inc.). Where presented, the Hill coefficient (nH), defining the slope of the competitive binding curve, is calculated using MathIQ™. […] Where IC50, Ki, and/or nH data are presented without Standard Error of the Mean (SEM), data are insufficient to be quantitative, and the values presented (Ki, IC50, nH) are interpreted with caution.

[2] = Preclinical genotoxicity studies (mutations, clastogenic effects); conditions: in vitro or in vivo

T3 sequence (Q08499 303-809 limits assumed): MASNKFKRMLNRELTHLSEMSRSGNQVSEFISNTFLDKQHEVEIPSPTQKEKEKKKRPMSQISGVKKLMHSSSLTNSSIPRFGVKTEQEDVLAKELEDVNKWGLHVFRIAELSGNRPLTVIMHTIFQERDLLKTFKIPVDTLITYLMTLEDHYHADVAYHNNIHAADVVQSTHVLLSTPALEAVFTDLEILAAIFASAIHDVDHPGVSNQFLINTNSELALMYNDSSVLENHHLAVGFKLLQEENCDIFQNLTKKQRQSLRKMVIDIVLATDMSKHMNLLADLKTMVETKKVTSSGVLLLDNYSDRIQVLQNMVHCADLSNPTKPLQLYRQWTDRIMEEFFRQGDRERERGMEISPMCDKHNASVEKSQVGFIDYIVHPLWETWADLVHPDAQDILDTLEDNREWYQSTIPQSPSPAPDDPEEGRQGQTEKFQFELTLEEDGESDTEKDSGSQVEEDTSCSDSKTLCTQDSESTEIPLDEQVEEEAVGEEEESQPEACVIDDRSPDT
T2 sequence (P54750 whole entry): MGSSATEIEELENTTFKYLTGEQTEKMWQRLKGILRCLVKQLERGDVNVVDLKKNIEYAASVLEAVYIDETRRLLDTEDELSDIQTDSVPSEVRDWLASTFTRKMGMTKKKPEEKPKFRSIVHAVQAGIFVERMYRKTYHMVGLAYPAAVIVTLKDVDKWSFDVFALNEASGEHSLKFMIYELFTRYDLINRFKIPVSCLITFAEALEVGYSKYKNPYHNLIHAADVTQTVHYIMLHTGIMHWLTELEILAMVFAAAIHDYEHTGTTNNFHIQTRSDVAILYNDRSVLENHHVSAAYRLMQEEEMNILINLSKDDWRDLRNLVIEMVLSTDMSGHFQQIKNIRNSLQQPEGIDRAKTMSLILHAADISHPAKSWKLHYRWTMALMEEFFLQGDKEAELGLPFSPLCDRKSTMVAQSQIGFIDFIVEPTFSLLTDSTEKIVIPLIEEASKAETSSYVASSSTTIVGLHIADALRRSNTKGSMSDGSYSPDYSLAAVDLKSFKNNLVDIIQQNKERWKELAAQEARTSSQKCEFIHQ
T1 sequence (Q14432 whole entry): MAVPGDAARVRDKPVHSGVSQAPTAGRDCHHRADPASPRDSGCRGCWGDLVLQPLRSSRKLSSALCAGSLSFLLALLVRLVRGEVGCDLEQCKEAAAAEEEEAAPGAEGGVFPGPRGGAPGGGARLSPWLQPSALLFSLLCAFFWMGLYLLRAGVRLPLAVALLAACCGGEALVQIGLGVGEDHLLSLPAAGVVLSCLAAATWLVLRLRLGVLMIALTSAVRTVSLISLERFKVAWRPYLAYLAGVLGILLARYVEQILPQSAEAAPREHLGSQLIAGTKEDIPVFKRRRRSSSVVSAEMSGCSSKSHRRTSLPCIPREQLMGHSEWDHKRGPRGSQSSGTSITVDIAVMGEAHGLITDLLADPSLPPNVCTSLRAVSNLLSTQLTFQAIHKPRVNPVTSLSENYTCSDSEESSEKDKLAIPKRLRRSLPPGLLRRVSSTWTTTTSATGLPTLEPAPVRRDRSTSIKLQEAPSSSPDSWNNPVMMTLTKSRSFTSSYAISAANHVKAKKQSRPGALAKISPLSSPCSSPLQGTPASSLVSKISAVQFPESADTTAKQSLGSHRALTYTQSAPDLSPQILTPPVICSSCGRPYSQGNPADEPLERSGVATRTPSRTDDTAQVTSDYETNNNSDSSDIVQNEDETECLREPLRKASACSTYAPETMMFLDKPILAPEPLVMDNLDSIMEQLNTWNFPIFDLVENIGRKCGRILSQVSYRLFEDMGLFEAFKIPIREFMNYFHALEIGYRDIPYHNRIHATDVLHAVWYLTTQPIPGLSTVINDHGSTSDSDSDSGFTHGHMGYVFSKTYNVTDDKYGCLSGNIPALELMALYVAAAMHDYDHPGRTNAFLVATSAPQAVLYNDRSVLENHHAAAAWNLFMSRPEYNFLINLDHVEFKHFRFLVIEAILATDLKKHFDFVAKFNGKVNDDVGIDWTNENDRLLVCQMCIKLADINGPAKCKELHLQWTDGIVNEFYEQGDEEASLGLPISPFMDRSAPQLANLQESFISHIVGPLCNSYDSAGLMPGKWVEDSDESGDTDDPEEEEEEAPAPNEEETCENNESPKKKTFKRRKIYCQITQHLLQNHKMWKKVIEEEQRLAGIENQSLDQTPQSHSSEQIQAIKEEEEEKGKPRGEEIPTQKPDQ

inhibition at 10 µM (Phosphodiesterase PDE3A): 6% | inhibition at 10 µM (Phosphodiesterase PDE1A): -8% | inhibition at 0.03 µM (Phosphodiesterase PDE4D2; 0.03 μM, N=2, Example 5): 70% | inhibition at 0.1 µM (Phosphodiesterase PDE4D2; 0.1 μM, N=2, Example 5): 83% | inhibition at 0.3 µM (Phosphodiesterase PDE4D2; 0.3 μM, N=2, Example 5): 91% | inhibition at 1 µM (Phosphodiesterase PDE4D2; 1 μM, N=2, Example 5): 96% | inhibition at 3 µM (Phosphodiesterase PDE4D2; 3 μM, N=2, Example 5): 97% | inhibition at 10 µM (Phosphodiesterase PDE4D2; 10 μM (first line, r2), N=2, Example 5): 99% | IC50 (Phosphodiesterase PDE4D2; Example 5): 6.19 nM
SMILES: CNc1nc(Nc2ccccc2)nc(OCC(F)(F)C(F)F)n1 [compound of Formula (I), N^2-methyl-N^4-phenyl-6-(2,2,3,3-tetrafluoropropoxy)-1,3,5-triazine-2,4-diamine]
Tolerability on ocular instillation [1]: well tolerated | Mutations or biologically relevant clastogenic effects [2]: does not induce mutations or biologically relevant clastogenic effects
